Experiments:
MCF-7 cells = assay: Treatment of MCF-7 cells with gamma secretase inhibitor, SP quantitated; type: cell-based, human; conditions: 10 uM reserpine during SP analysis
Method: FIG. 10A-10D illustrates the results of a screen for anti-cancer stem cell activity using the MCF-7 cancer cell line. MCF-7 cells were incubated with 1 uM gamma secretase inhibitor (Calbiochem, San Diego, catalog number 565750) for 7 days (B, D). Control cells were cultured without a gamma secretase inhibitor (A, C). Following drug treatment, cells were washed, and then the SP was analyzed as described herein, in the presence (C, D) or absence (A, B) of 10 uM reserpine. The percentage of SP cells in the culture is given for each experimental condition.
MCF-7 cells were cultured in serum-containing media, as described above. Cells were harvested from the cultures, washed, and resuspended in gamma secretase inhibitor I. Gamma secretase inhibitor I was purchased from Calbiochem™ (San Diego, Calif.; Catalog number 565750). The gamma secretase inhibitor was added to the cultures at a final concentration of 1 uM. Cells were treated for 7 days, and the SP was quantitated as described.
The invention includes methods for evaluating compounds for anti-cancer stem cell activity by monitoring the SP cell population of a cancer cell line. In this experiment, MCF-7 cells were treated with a gamma secretase inhibitor, as described above. […] Therefore, gamma secretase inhibitors could affect cancer stem cells expressing the Notch protein. […]

MCF7 breast cancer cells = assay: SP analysis by Hoechst 33342 flow cytometry, MCF7 breast cancer cells; type: cell-based, human; conditions: 50 μM verapamil during Hoechst 33342 labeling
Method: (§1) To identify and isolate the SP cells in the cancer cell lines, the lines were cultured as described above, in either FCS or serum-free culture medium with bFGF, PDGF, or both. The cells were removed from the culture dish with trypsin and EDTA GIBCO BRL), washed, suspended at 10^6 cells per ml in DMEM containing 2% FCS (staining medium), and preincubated in 1.5-ml Eppendorf tube at 37° C. for 10 min. The cells were then labeled in the same medium at 37° C. for 90 min with 2.5 μg/ml Hoechst 33342 dye (Molecular Probes), either alone or in combination with 50 μM verapamil (Sigma), which is an inhibitor of some (verapamil-sensitive) ABC transporters (Goodell, M. A. (1996) J. Exp. Med. 183 1797-1806.). Finally, the cells were counterstained with 1 μg/ml propidium iodide to label dead cells. Then, 3-5×10^4 cells were analyzed in a FACSVantage fluorescence-activated cell sorter (Becton Dickinson) by using dual-wavelength analysis (blue, 424-444 nm; red, 675 nm) after excitation with 350-nm UV light. Propidium iodide-positive dead cells (15%) were excluded from the analysis. In the case of the C6 cell line, the SP cells or non-SP cells were sorted and cultured in serum-free culture medium with bFGF and PDGF.
(§2) They were then analyzed by flow cytometry. […] No SP cells were detected in the two human osteosarcoma lines (U-20S and SaOS-2).

C6 glioma cells = assay: SP analysis by Hoechst 33342 flow cytometry, C6 glioma cells; type: cell-based, rat; conditions: 50 μM verapamil during Hoechst 33342 labeling
Method: as §1, §2

B104 neuroblastoma cells = assay: SP analysis by Hoechst 33342 flow cytometry, B104 neuroblastoma cells; type: cell-based, rat; conditions: 50 μM verapamil during Hoechst 33342 labeling
Method: as §1, §2

HeLa carcinoma cells = assay: SP analysis by Hoechst 33342 flow cytometry, HeLa carcinoma cells; type: cell-based, human; conditions: 50 μM verapamil during Hoechst 33342 labeling
Method: as §1, §2

MCF7 cells = assay: MCF7 SP cell expansion in serum-free medium with growth factors; type: cell-based, human; conditions: growth factor 10 ng/ml, 7 days, in FCS less than 0.8%
Method: The cells were cultured in FCS (A) or serum-free medium with bFGF (B), EGF (C), or both (D) for 7 days and were analyzed by flow cytometry. The SP is outlined and shown as a % of the total cell population.
(§3) The cells were cultured in DMEM, supplemented with 10% FCS, 100 units/ml penicillin G, and 100 μg/ml streptomycin (GIBCO). In some experiments, C6 cells were cultured in serum-free DMEM containing 10 μg/ml bovine insulin, 100 μg/ml human transferrin, 100 μg/ml BSA, 60 ng/ml progesterone, 16 μg/ml putrescine, 40 ng/ml sodium selenite, 63 μg/ml N-acetylcysteine, 5 μM forskolin, 50 units/ml penicillin, and 50 μg/ml streptomycin (GIBCO), as well as one or both of 10 ng/ml bFGF and 10 ng/ml PDGF, or one or both of bFGF (10 ng/ml) and EGF (10 ng/ml).
MCF7 Cell Expansion MCF7 cells were cultured in 10% FCS (FIG. 7A) or in serum-free culture medium with bFGF (FIG. 7B), EGF (FIG. 7C), or both (FIG. 7D) for 7 days. […] Cells were stained with Hoechst dye and analyzed by flow cytometry. When cultured in FCS, less than 0.8% of the cells are SP cells. By contrast, when cultured in serum-free medium with bFGF, EGF or both, 5.1%, 3.5%, or 6.2% of the cells, respectively, are SP cells.

C6 cells = assay: C6 SP cell expansion in serum-free medium with bFGF and PDGF; type: cell-based, rat; conditions: 10 ng/ml growth factor, up to 3 weeks
Method: as §3
To identify and isolate the SP cells in the cancer cell lines, the lines were cultured as described above, in either FCS or serum-free culture medium with bFGF, PDGF, or both. […] Then, 3-5×10^4 cells were analyzed in a FACSVantage fluorescence-activated cell sorter (Becton Dickinson) by using dual-wavelength analysis (blue, 424-444 nm; red, 675 nm) after excitation with 350-nm UV light. […]
The cells were stained with Hoechst 33342 and analyzed by flow cytometry. […]
To investigate the individual roles of PDGF and bFGF in expanding C6 SP cells, C6 cells were cultured in either bFGF or PDGF for 2 weeks and then in bFGF plus PDGF for an additional 2 weeks. The cells were then stained with Hoechst 33342 and analyzed by flow cytometry. […]

Compound: COC(=O)[C@H]1[C@H]2C[C@@H]3c4[nH]c5cc(OC)ccc5c4CCN3C[C@H]2C[C@@H](OC(=O)c2cc(OC)c(OC)c(OC)c2)[C@@H]1OC [reserpine]
- SP in the presence of reserpine (MCF-7 cells): no SP is visible

Compound: COc1ccc(CCN(C)CCCC(C#N)(c2ccc(OC)c(OC)c2)C(C)C)cc1OC (stereo not drawn) [verapamil]
- SP (side population) on treatment with verapamil (MCF7 breast cancer cells): decreased greatly
- SP (side population) on treatment with verapamil (C6 glioma cells): decreased greatly
- SP (side population) on treatment with verapamil (B104 neuroblastoma cells): decreased greatly
- SP (side population) on treatment with verapamil (HeLa carcinoma cells): decreased greatly

Compound: EGF: recombinant cytokine added to serum-free medium at 10 ng/ml
- % of the cells that are SP cells (MCF7 cells): 3.5%

Compound: PDGF
- SP cells maintained or detected in culture (C6 cells): few SP cells could be detected

Compound: bFGF: basic fibroblast growth factor, recombinant cytokine purchased from PeproTech
- SP cells maintained or detected in culture (C6 cells): few SP cells could be detected
- % of the cells that are SP cells (MCF7 cells): 5.1%

Reference: patent US10538742B2, “Methods and means related to cancer stem cells” (Cambridge Enterprise Limited, priority 2004, dated 2020)
